The values below come from patent publication US11725036B2, “Modified lipidated relaxin B chain peptides and their therapeutic use” (Sanofi, priority 2018, dated 2023).

The target of this assay is T1, RXFP1 (Homo sapiens, UniProt Q9HBX9).
T1 construct: OVCAR5 cells expressing endogenous RXFP1; endogenous in cells; host or cells: OVCAR5
T1 sequence (Q9HBX9 1-757): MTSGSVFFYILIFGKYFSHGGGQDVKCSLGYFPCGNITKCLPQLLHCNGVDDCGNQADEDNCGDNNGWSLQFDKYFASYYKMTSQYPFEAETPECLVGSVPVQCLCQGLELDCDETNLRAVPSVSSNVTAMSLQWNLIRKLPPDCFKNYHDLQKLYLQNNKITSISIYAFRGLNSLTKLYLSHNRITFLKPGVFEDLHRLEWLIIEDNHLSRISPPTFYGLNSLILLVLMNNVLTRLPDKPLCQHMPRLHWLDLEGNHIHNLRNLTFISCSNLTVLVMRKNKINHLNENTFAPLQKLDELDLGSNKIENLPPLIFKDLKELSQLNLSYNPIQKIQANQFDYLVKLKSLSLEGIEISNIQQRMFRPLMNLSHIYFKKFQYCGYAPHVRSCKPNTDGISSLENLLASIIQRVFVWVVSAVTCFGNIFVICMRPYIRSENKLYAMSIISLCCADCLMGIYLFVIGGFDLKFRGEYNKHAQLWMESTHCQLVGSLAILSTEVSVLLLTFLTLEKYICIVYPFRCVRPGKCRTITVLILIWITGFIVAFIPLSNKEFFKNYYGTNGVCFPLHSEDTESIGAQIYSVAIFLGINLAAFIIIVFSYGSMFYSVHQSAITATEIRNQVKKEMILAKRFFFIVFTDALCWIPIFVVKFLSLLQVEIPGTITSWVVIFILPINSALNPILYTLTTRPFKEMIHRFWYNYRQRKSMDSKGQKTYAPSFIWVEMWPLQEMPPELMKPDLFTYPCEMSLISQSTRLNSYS
The assay is described as follows: OVCAR5 cAMP assay (HTRF). It counts as cell-based. The following applies: for EC50: OVCAR 5 cells expressing endogenous RXFP1, cAMP readout; for Emax: OVCAR 5 cells, maximal cAMP relative to H2-relaxin. The procedure, abridged:
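Peptide agonism measured as intracellular cAMP (HTRF) after 30 min at 37° C in serum-free medium, following 40 min 1 mM IBMX preincubation of OVCAR5 cells. Nonlinear regression gave EC50; Emax % = 100 × compound maximal cAMP / H2-relaxin maximal cAMP.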
(Cyclic AMP is a second messenger, typically raised through Gs and lowered through Gi signalling.)

Starred links: 1 amine or outer side, 2 acyl side, 3 side chain; linkers in the order of their positions; H or OH if unused. Non-standard residues stand in square brackets, D forms with d. Residues, ends and D or L forms follow the SMILES beside them. Groups on a side chain read outwards from the residue. *: point of attachment. X1 = CCCCCCCCCCCCCCCC(=O)N[C@@H](CCC(=O)N[C@@H](CCC(=O)N[C@@H](CCC(=O)NCCCOCCOCCOCCCNC(=O)CCC(=O)NCCCOCCOCCOCCCNC(=O)CCC(=O)NCCCOCCOCCOCCCN*)C(=O)O)C(=O)O)C(=O)O; γGlu = O=C(O)[C@H](CCC(=O)[*:2])N[*:1]; Palmitoyl = CCCCCCCCCCCCCCCC(=O)*; Suc = O=C(CCC(=O)[*:2])[*:1]; αMeK = C[C@](N)(CCCCN)C(=O)O; AEEA = NCCOCCOCC(=O)O; Aib = CC(C)(N)C(=O)O

In turn, `CCCCCCCCCCCCCCCC(=O)N[C@@H](CCC(=O)N[C@@H](CCC(=O)N[C@@H](CCC(=O)NCCCOCCOCCOCCCNC(=O)CCC(=O)NCCCOCCOCCOCCCNC(=O)CCC(=O)NCCCOCCOCCOCCCNC(=O)CCC(=O)NCCCC[C@H](NC(=O)CNC(=O)[C@H](CCC(=O)O)NC(=O)C(C)(C)NC(=O)C(C)(C)NC(=O)[C@@H](NC(=O)[C@H](CCCCNC(C)=O)NC(=O)[C@H](C)NC(=O)[C@H](CCCNC(=N)N)NC(=O)[C@@H](NC(=O)[C@H](CCCCN)NC(=O)[C@H](CCC(=O)O)NC(=O)[C@H](CCCNC(=N)N)NC(=O)CNC(=O)[C@H](CCC(=O)O)NC(=O)[C@H](CC(C)C)NC(C)=O)C(C)C)[C@@H](C)CC)C(=O)N[C@@H](CO)C(=O)N[C@H](C(=O)N[C@@H](Cc1ccccc1)C(=O)N[C@@H](CO)C(=O)N[C@H](CCCCN)C(=O)N[C@@H](CCCNC(=N)N)C(=O)N[C@@H](C)C(=O)N[C@@H](CCCCNC(C)=O)C(N)=O)[C@@H](C)O)C(=O)O)C(=O)O)C(=O)O` [compound 36] (Ac-LEGREKVRAK(Ac)I[Aib][Aib]EGK([Suc-X1])STFS[dK]RAK(Ac)-NH2) gave an EC50 of 3.6 nM and an Emax of 93%.
For `CCCCCCCCCCCCCCCC(=O)N[C@@H](CCC(=O)N[C@@H](CCC(=O)N[C@@H](CCC(=O)NCCCOCCOCCOCCCNC(=O)CCC(=O)NCCCOCCOCCOCCCNC(=O)CCC(=O)NCCCOCCOCCOCCCNC(=O)CCC(=O)NCCCC[C@H](NC(=O)CNC(=O)[C@H](CCC(=O)O)NC(=O)C(C)(C)NC(=O)C(C)(C)NC(=O)[C@@H](NC(=O)[C@H](CCCCNC(C)=O)NC(=O)[C@H](C)NC(=O)[C@H](CCCNC(=N)N)NC(=O)[C@@H](NC(=O)[C@H](CC(C)C)NC(=O)[C@H](CCC(=O)O)NC(=O)[C@H](CCCNC(=N)N)NC(=O)CNC(=O)[C@H](CCC(=O)O)NC(=O)[C@H](CC(C)C)NC(C)=O)C(C)C)[C@@H](C)CC)C(=O)N[C@@H](CO)C(=O)N[C@H](C(=O)N[C@@H](Cc1c[nH]c2ccccc12)C(=O)N[C@@H](CO)C(=O)NC(C)(C)C(=O)N[C@@H](CCCNC(=N)N)C(=O)N[C@@H](CCCNC(=N)N)C(=O)N[C@@H](CCCCNC(C)=O)C(N)=O)[C@@H](C)O)C(=O)O)C(=O)O)C(=O)O` [compound 37] (Ac-LEGRELVRAK(Ac)I[Aib][Aib]EGK([Suc-X1])STWS[Aib]RRK(Ac)-NH2), in that order: 5.6 nM and 98%.
Taken in the same sequence, the figures for `CCCCCCCCCCCCCCCC(=O)N[C@@H](CCC(=O)N[C@@H](CCC(=O)N[C@@H](CCC(=O)NCCCOCCOCCOCCCNC(=O)CCC(=O)NCCCOCCOCCOCCCNC(=O)CCC(=O)NCCCOCCOCCOCCCNC(=O)CCC(=O)NCCCC[C@H](NC(=O)CNC(=O)[C@H](CCC(=O)O)NC(=O)C(C)(C)NC(=O)C(C)(C)NC(=O)[C@@H](NC(=O)[C@H](CCCCNC(C)=O)NC(=O)[C@H](C)NC(=O)[C@H](CCCNC(=N)N)NC(=O)[C@@H](NC(=O)[C@H](Cc1ccccc1)NC(=O)[C@H](CCC(=O)O)NC(=O)[C@H](CCCNC(=N)N)NC(=O)CNC(=O)[C@H](CCC(=O)O)NC(=O)[C@H](CC(C)C)NC(C)=O)C(C)C)[C@@H](C)CC)C(=O)N[C@@H](CO)C(=O)N[C@H](C(=O)N[C@@H](Cc1c[nH]c2ccccc12)C(=O)N[C@@H](CO)C(=O)NC(C)(C)C(=O)N[C@@H](CCCNC(=N)N)C(=O)N[C@@H](CCCNC(=N)N)C(=O)N[C@@H](CCCCNC(C)=O)C(N)=O)[C@@H](C)O)C(=O)O)C(=O)O)C(=O)O` [compound 39] (Ac-LEGREFVRAK(Ac)I[Aib][Aib]EGK([Suc-X1])STWS[Aib]RRK(Ac)-NH2) were 8.7 nM and 93%.
For `CCCCCCCCCCCCCCCC(=O)N[C@@H](CCC(=O)N[C@@H](CCC(=O)N[C@@H](CCC(=O)NCCOCCOCC(=O)NCCOCCOCC(=O)NCCOCCOCC(=O)NCCOCCOCC(=O)NCCCC[C@H](NC(=O)CNC(=O)[C@H](CCC(=O)O)NC(=O)C(C)(C)NC(=O)C(C)(C)NC(=O)[C@@H](NC(=O)[C@H](CCCCNC(C)=O)NC(=O)[C@H](C)NC(=O)[C@H](CCCNC(=N)N)NC(=O)[C@@H](NC(=O)[C@H](CCCCN)NC(=O)[C@H](CCC(=O)O)NC(=O)[C@H](CCCNC(=N)N)NC(=O)CNC(=O)[C@H](CCC(=O)O)NC(=O)[C@H](CC(C)C)NC(C)=O)C(C)C)[C@@H](C)CC)C(=O)N[C@@H](CO)C(=O)N[C@H](C(=O)N[C@@H](Cc1c[nH]c2ccccc12)C(=O)N[C@@H](CO)C(=O)N[C@@](C)(CCCCN)C(=O)N[C@@H](CCCNC(=N)N)C(=O)N[C@@H](C)C(=O)N[C@@H](CCCCNC(C)=O)C(N)=O)[C@@H](C)O)C(=O)O)C(=O)O)C(=O)O` [compound 42] (Ac-LEGREKVRAK(Ac)I[Aib][Aib]EGK([AEEA-AEEA-AEEA-AEEA-γGlu-γGlu-γGlu-Palmitoyl])STWS[αMeK]RAK(Ac)-NH2), in that order: 1.5 nM and 84%.
In the case of `CCCCCCCCCCCCCCCC(=O)N[C@@H](CCC(=O)N[C@@H](CCC(=O)N[C@@H](CCC(=O)NCCOCCOCC(=O)NCCOCCOCC(=O)NCCOCCOCC(=O)NCCOCCOCC(=O)NCCOCCOCC(=O)NCCCC[C@H](NC(=O)CNC(=O)[C@H](CCC(=O)O)NC(=O)C(C)(C)NC(=O)C(C)(C)NC(=O)[C@@H](NC(=O)[C@H](CCCCNC(C)=O)NC(=O)[C@H](C)NC(=O)[C@H](CCCNC(=N)N)NC(=O)[C@@H](NC(=O)[C@H](CCCCN)NC(=O)[C@H](CCC(=O)O)NC(=O)[C@H](CCCNC(=N)N)NC(=O)CNC(=O)[C@H](CCC(=O)O)NC(=O)[C@H](CC(C)C)NC(C)=O)C(C)C)[C@@H](C)CC)C(=O)N[C@@H](CO)C(=O)N[C@H](C(=O)N[C@@H](Cc1ccccc1)C(=O)N[C@@H](CO)C(=O)N[C@@](C)(CCCCN)C(=O)N[C@@H](CCCNC(=N)N)C(=O)N[C@@H](C)C(=O)N[C@@H](CCCCNC(C)=O)C(N)=O)[C@@H](C)O)C(=O)O)C(=O)O)C(=O)O` [compound 45] (Ac-LEGREKVRAK(Ac)I[Aib][Aib]EGK([AEEA-AEEA-AEEA-AEEA-AEEA-γGlu-γGlu-γGlu-Palmitoyl])STFS[αMeK]RAK(Ac)-NH2), the EC50 amounted to 0.45 nM and the Emax was found to be 96%.
Taken in the same sequence, the figures for `CCCCCCCCCCCCCCCC(=O)N[C@@H](CCC(=O)N[C@@H](CCC(=O)N[C@@H](CCC(=O)NCCCOCCOCCOCCCNC(=O)CCC(=O)NCCCOCCOCCOCCCNC(=O)CCC(=O)NCCCOCCOCCOCCCNC(=O)CCC(=O)NCCCC[C@H](NC(=O)CNC(=O)[C@H](CCC(=O)O)NC(=O)C(C)(C)NC(=O)C(C)(C)NC(=O)[C@@H](NC(=O)[C@H](CCCCN)NC(=O)[C@H](C)NC(=O)[C@H](CCCNC(=N)N)NC(=O)[C@@H](NC(=O)[C@H](CCCCN)NC(=O)[C@H](CCC(=O)O)NC(=O)[C@H](CCCNC(=N)N)NC(=O)CNC(=O)[C@H](CCC(=O)O)NC(=O)[C@H](CC(C)C)NC(C)=O)C(C)C)[C@@H](C)CC)C(=O)N[C@@H](CO)C(=O)N[C@H](C(=O)N[C@@H](Cc1ccccc1)C(=O)N[C@@H](CO)C(=O)N[C@@](C)(CCCCN)C(=O)N[C@@H](CCCNC(=N)N)C(=O)N[C@@H](C)C(=O)N[C@@H](CCCCNC(C)=O)C(N)=O)[C@@H](C)O)C(=O)O)C(=O)O)C(=O)O` [compound 47] (Ac-LEGREKVRAKI[Aib][Aib]EGK([Suc-X1])STFS[αMeK]RAK(Ac)-NH2) were 0.64 nM and 95%.
Taken in the same sequence, the figures for `CCCCCCCCCCCCCCCC(=O)N[C@@H](CCC(=O)N[C@@H](CCC(=O)N[C@@H](CCC(=O)NCCCOCCOCCOCCCNC(=O)CCC(=O)NCCCOCCOCCOCCCNC(=O)CCC(=O)NCCCOCCOCCOCCCNC(=O)CCC(=O)NCCCC[C@H](NC(=O)CNC(=O)[C@H](CCC(=O)O)NC(=O)C(C)(C)NC(=O)C(C)(C)NC(=O)[C@@H](NC(=O)[C@H](CCC(N)=O)NC(=O)[C@H](C)NC(=O)[C@H](CCCNC(=N)N)NC(=O)[C@@H](NC(=O)[C@H](CCCCN)NC(=O)[C@H](CCC(=O)O)NC(=O)[C@H](CCCNC(=N)N)NC(=O)CNC(=O)[C@H](CCC(=O)O)NC(=O)[C@H](CC(C)C)NC(C)=O)C(C)C)[C@@H](C)CC)C(=O)N[C@@H](CO)C(=O)N[C@H](C(=O)N[C@@H](Cc1ccccc1)C(=O)N[C@@H](CO)C(=O)N[C@@](C)(CCCCN)C(=O)N[C@@H](CCCNC(=N)N)C(=O)N[C@@H](C)C(=O)N[C@@H](CCCCNC(C)=O)C(N)=O)[C@@H](C)O)C(=O)O)C(=O)O)C(=O)O` [compound 48] (Ac-LEGREKVRAQI[Aib][Aib]EGK([Suc-X1])STFS[αMeK]RAK(Ac)-NH2) were 0.45 nM and 96%.

Usually EC50 stands for the concentration that produces a half-maximal response. One may read the Emax as the greatest response seen or fitted, relative to the assay's reference.
